# Measurements published in patent US20220387358A1, “CERAMIDE ANALOG SACLAC MODULATES SPHINGOLIPID LEVELS AND MCL-1 SPLICING TO INDUCE APOPTOSIS IN ACUTE MYELOID LEUKEMIA” (University of Virginia Patent Foundation, priority 2019, published 2022).
# Several values for one entry are separate records, joined by “and”; a condition that tells them apart may be missing. Equal entries are not always repeated.
# Experiments:
# acid ceramidase (AC) = target: T1, acid ceramidase (AC) (Homo sapiens, UniProt Q13510); assay: Acid ceramidase activity assay (RBM14C12 fluorogenic substrate) in human AML cell lines; assay type: cell-based; settings: SACLAC 2.5 μM, 24-hour treatment
# T1 construct: endogenous in cells; host or cells: HL-60/VCR, THP-1 and OCI-AML2 human AML cell lines
# T1 sequence (Q13510 143-395 limits assumed): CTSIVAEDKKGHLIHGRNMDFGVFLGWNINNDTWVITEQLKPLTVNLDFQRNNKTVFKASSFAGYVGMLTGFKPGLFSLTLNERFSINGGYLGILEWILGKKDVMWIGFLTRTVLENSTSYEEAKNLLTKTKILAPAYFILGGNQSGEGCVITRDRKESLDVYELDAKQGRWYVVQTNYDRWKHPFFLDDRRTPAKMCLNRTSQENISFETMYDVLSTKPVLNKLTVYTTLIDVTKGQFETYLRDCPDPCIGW
# T1 sequence (Q13510 22-142 limits assumed): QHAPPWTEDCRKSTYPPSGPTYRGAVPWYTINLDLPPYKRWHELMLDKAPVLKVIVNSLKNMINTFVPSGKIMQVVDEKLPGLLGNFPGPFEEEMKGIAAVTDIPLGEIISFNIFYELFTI
# Description: Cells were seeded at 2×10^4 cells per well in 50 μl Acid ceramidase activity was measured at 24 hours using the RBM14C12 fluorogenic substrate as previously described (22,34).
# human AML cell lines = assay: Sphingolipid analysis by LC-ESI-MS/MS (S1P, total ceramide); assay type: cell-based; settings: 2.5 μM, 24 hours
# Description: Lipid extraction and analysis was done using liquid chromatography-electrospray ionization-tandem mass spectrometry (LC-ESI-MS/MS) as previously described (22). Cells were plated at 5 million cells per 6 ml and treated with SACLAC or DMSO for 24 hours. Lipids were extracted from cell pellets using an azeotrophic mix of isopropanol: water: ethyl acetate (3:1:6; v:v:v). Internal standards (50 pmol of d17 long-chain bases and C12 acylated sphingolipids) were added to samples at the onset of the extraction procedure. Extracts were separated on a Waters I-class Acquity UPLC chromatography system (Waters Corporation, Milford, Mass., United States of America). Mobile phases were (A) 60:40 water: acetonitrile and (B) 90:10 isopropanol:methanol with both mobile phases containing 5 mM ammonium formate and 0.1% formic acid. A Waters C18 CSH 2.1 mm ID×10 cm column maintained at 65° C. was used for the separation of the sphingoid bases, 1-phosphates, and acylated sphingolipids. The eluate was analyzed with an inline Waters TQ-S mass spectrometer (Waters Corporation, Milford, Mass., United States of America) using multiple reaction monitoring. All data reported are based on monoisotopic mass and are represented as pmol/mg protein.
# OCI-AML2 cells = assay: Apoptosis by flow cytometry (Annexin V); assay type: cell-based, human; settings: SACLAC 5 μM
# Description: Apoptosis in cell lines was assessed after treating 2.5×10^5 cells per ml with drug or vehicle in a 48-well plate for the indicated time points and doses. Primary human AML cells were pre-incubated with SFEM for 48 hours before plating 2×10^5 cells in 24-well plates for the indicated times point and doses. Samples were stained using the Muse Annexin V & Dead Cell Kit (Millipore #MCH100105). Change in mitochondrial membrane potential in cell lines was measured with the Muse® MitoPotential Kit (#MCH100110, MilliporeSigma, Burlington, Mass., United States of America). Caspase activation was measured using the Muse® Caspase 3/7 Assay Kit (#MCH100108, MilliporeSigma, Burlington, Mass., United States of America). For rescue experiments, cells were plated at 2.5×10^4 well in a 96-well plate 24 hours after electroporation. Cells were treated with DMSO or SACLAC for 48 hours and apoptosis was detected as stated above. All kits were used according to manufacturer's protocol. Cells were then analyzed using the Muse® Cell Analyzer (MilliporeSigma, Burlington, Massachusetts, United States of America) (35,36). Experiments included positive and negative controls for proper analysis.
# [1] = system: two human AML xenograft mouse models; assay: Leukemic burden across two human AML xenograft mouse models; assay type: in vivo
# Excerpt: To assess the efficacy of SACLAC in a transplantable human AML model, two cell line models were used. For the MV4-11 model, 2.5×10^6 luciferase and yellow fluorescent protein (YFP)-expressing MV4-11 cells in HBSS were introduced into 6- to 8-week-old female NSG mice via tail-vein injections. After 10-12 days, engraftment was confirmed using bioluminescence imaging with the IVIS Lumina LT Series III imaging system (PerkinElmer Inc., Waltham, Mass., United States of America). Mice were equally randomized into two groups of three mice and treated with vehicle or SACLAC at 5 mg/kg/day five times per week for 18 total injections. At the end of the treatment, animals were euthanized and peripheral blood was collected for flow cytometry analysis.
# For the U937 model, 1×10^4 luciferase and tdTomato-expressing U937 cells in […] were introduced into 6- to 8-week-old female NSG mice via tail-vein injections. After six days, engraftment was confirmed as stated above. Mice were equally randomized into two groups of five mice and treated with vehicle or SACLAC at 5 mg/kg/day five times per week for 15 total injections. Animals were euthanized and bone marrow was collected for flow cytometry analysis.
# [2] = Pharmacokinetics, SACLAC in blood/serum by mass spectrometry; assay type: in vivo
# Description: More particularly, maximum tolerated dose of SACLAC was determined in NOD-scid IL2Rgamma^null (NSG) mice (n=5; Jackson Laboratories, Bar Harbor, Me., United States of America). Mice were injected with SACLAC reconstituted in β-HPCD (IV) daily for 5 days at a dose of 5 mg/kg body weight, respectively. For pharmacokinetics studies, Swiss Webster mice (n=3; Charles River Laboratories, Wilmington, Mass., United States of America) were injected with SACLAC dissolved in DMSO (40 mg/kg body weight, intraperitoneally) or dissolved in β-HPCD (5 mg/kg body weight, via tail-vein injection). Mice were euthanized and blood was harvested at time points ranging from 0 to 48 hours. Serum concentration of SACLAC was measured by mass spectrometry quantification relative to SACLAC standard using the method referenced above.
compound,measurement,setting,value
"CCCCCCCCCCCCCCC[C@@H](O)[C@H](CO)NC(=O)CCl [SACLAC, N-[(2S,3R)-1,3-dihydroxyoctadecan-2-yl]2-chloroacetamide]",AC activity reduced by,acid ceramidase (AC); HL-60/VCR,98%
same,AC activity reduced by,acid ceramidase (AC); OCI-AML2,100%
same,AC activity reduced by,acid ceramidase (AC); THP-1,71%
same,increase in total ceramide,"human AML cell lines; HL-60/VCR, THP-1, OCI-AML2",2.5 fold and 2- to 3 fold
same,S1P content reduced by,human AML cell lines; HL-60/VCR,87%
same,S1P levels,human AML cell lines; OCI-AML2,below the limit of detection
same,S1P levels,human AML cell lines; THP-1,below the limit of detection
same,apoptosis,OCI-AML2 cells; 12 hours,79%
same,apoptosis,OCI-AML2 cells; 24 hours,nearly all cells undergoing apoptosis
same,reduction in leukemic burden,[1],37 to 75%
same,"maximal serum concentration, IV vs IP delivery",[2]; 5 mg/kg i.v. in β-HPCD vs 40 mg/kg i.p. in DMSO,higher maximal serum concentration than IP delivery
same,half-life in the blood,[2]; 40 mg/kg i.p. in DMSO or 5 mg/kg i.v. in β-HPCD,short half-life
same,peak serum SACLAC levels,[2]; after changing administration route and vehicle,less than 1 μM
same,uptake following i.p. injection,"[2]; mouse, in vivo, ip",suboptimal uptake
